Measurements as given in publication PMC7822874, “Chemoprotective antimalarials identified through quantitative high-throughput screening of Plasmodium blood and liver stage parasites” (Scientific Reports, 2021).
Like-named read-outs stand apart in the source and are kept apart here.

Legend:
[1] = tested on: luciferase-expressing P. berghei liver stage parasites in HepG2 cells; test: Inhibition of liver-stage development assay (ILSDA), Method 2 (WRAIR, 96-well); format: cell-based, Plasmodium berghei; details: for Activity direction (Decrease / Inactive): P. berghei liver stage; for Max Resp (signal direction of the dose response): Decrease = decreasing P. berghei viability with dose, Increase = increasing signal, Inactive = no dose response
[2] = tested on: Plasmodium falciparum Dd2 asexual blood stage parasites; test: microbe, parasite or virus in culture; parameters: species or system Plasmodium falciparum Dd2 in human erythrocytes; single determination (one 11-point concentration-response curve); details: Plasmodium falciparum, DD2, Erythrocyte, 72 h; read-out: AC50
in vitro = details: human, hepg2-a16-cd81egfp cells, % viability
[3] = Plasmodium berghei, HepG2, P. berghei liver stage, Method 2, dose response, read-out: AC50
[4] = Plasmodium berghei, HepG2, P. berghei liver stage, Method 2, dose response, read-out: Log AC50 (converted)
[5] = Plasmodium berghei, HepG2, Method 2, Hill fit, 50% of maximum activity response, read-out: AC50
[6] = Plasmodium berghei, HepG2, Method 2, log10 of molar AC50 from Hill fit, read-out: Log AC50 (converted)

Compound	Activity direction (Decrease / Inactive) ([1]; Method 2, dose response)	viability at 3 µM (in vitro) [%]	also measured
O=C(O)c1cccc(CN2CC(CNC(=O)c3ccccc3)C3(C2)CN(c2ccccc2)C3)c1 (stereo not shown) [NCGC00415857-01]	Decrease	–	AC50 [1, 3]: 891 nM; AC50 [1, 4]: 891 nM
c1ccc(NCC2CN(Cc3ccccn3)CC23CN(c2ccccc2)C3)cc1 (stereo not shown) [NCGC00415982-01]	Inactive	–	–
Cc1nc2c(c(N3CCCC(COc4cccc(F)c4)C3)n1)CCNCC2 (stereo not shown) [NCGC00440030-01]	Inactive	–	AC50 [2]: 8410 nM
CC(=O)Nc1ccc2c(c1)[S+](=O)([O-])N=C(CC(C)C)N2c1ccccc1 [NCGC00475154-01]	Inactive	–	–
O=C1C(c2ccc(C(F)(F)F)cc2)=C(Nc2ccc(Cl)cc2)c2ccccc21 [NCGC00107304]	–	–	Max Resp (signal direction of the dose response) ([1]; Method 2): Inactive
c1ccc(OCC2CN(Cc3ccc4[nH]ccc4c3)CC23CN(c2ccccc2)C3)cc1 (stereo not shown) [NCGC00415812-01]	Inactive	–	–
N#Cc1cccc(CN2CC(CNc3ccccc3)C3(C2)CN(c2ccccc2)C3)c1 (stereo not shown) [NCGC00415808-01]	Decrease	–	AC50 [1, 3]: 2240 nM; AC50 [1, 4]: 2240 nM
O=C(Nc1ncccc1O)c1ccc(S(=O)(=O)Nc2ccccc2)cc1 [MLS001099437-01]	–	–	Max Resp (signal direction of the dose response) ([1]; Method 2): Inactive
CC(C)C1=N[S+](=O)([O-])c2cc(NC(=O)c3ccco3)ccc2N1c1ccccc1 [NCGC00473412-01]	Inactive	–	–
CC(C)c1ccc(CN2CC(CNc3cccnc3)C3(C2)CN(c2ccccc2)C3)cc1 (stereo not shown) [NCGC00415809-01]	Inactive	–	AC50 [2]: 4850 nM
Cc1cccc(N(C)c2nc3ccccc3c3nnc(C)n23)c1 [NCGC00126108]	–	–	Max Resp (signal direction of the dose response) ([1]; Method 2): Decrease; AC50 ([1]; Method 2, Hill fit, 50% of maximum activity response, read-out: AC50): 200 nM; Log AC50 (M) ([1]; Method 2, log10 of molar AC50 from Hill fit): -6.700 M
O=[S+]([O-])(NCC1CN(Cc2ccc(O)cc2)CC12CN(c1ccccc1)C2)c1ccccc1 (stereo not shown) [NCGC00415939-01]	Inactive	–	AC50 [2]: 6680 nM
Cc1ccc(NC2=C(c3ccc(C(F)(F)F)cc3)C(=O)c3ccccc32)cc1C [NCGC00107300]	–	–	Max Resp (signal direction of the dose response) ([1]; Method 2): Decrease; AC50 [1, 5]: 398 nM; AC50 [1, 6]: 398 nM
COC(=O)C1=CN(Cc2ccc(OC)cc2)C=C(C(=O)OC)C1c1cc(OC)c(OC)c(OC)c1 [MLS001197127]	–	105	–
CCOc1ccc(CCNC(=O)Nc2ccccc2)cc1OCC [MLS001197603]	–	99.4	–
Cc1ccc(NC2=C(c3ccc(C(F)(F)F)cc3)C(=O)c3ccccc32)cc1F [NCGC00107266]	–	–	Max Resp (signal direction of the dose response) ([1]; Method 2): Decrease; AC50 [1, 5]: 112 nM; AC50 [1, 6]: 112 nM
O=C(c1cc(C(=O)NCCc2ccccc2)c(=O)n(CCc2ccccc2)c1)c1cc(Cl)ccc1O [MLS000402354]	–	100	–
CCCC(=O)Nc1sc2c(c1C(=O)Nc1ccccn1)CCCC2 [MLS000765104]	–	97.6	–
Cc1cc(Nc2ccc(Cl)cc2)nc(NCc2ccccc2)n1 [MLS000591025]	–	87.8	–
COc1cc2ccccc2cc1C(=O)N1CCCC(C(F)(F)F)C1 (stereo not shown) [MLS002180647]	–	86	–
CCOc1cc(C(=O)N2CCC(CC3CC(c4ccc(Cl)cc4)=NO3)(C(=O)NCC3CCCCC3)CC2)cc(OCC)c1OCC (stereo not shown) [MLS001143937]	–	93.2	–
O=C(NC1=C(Nc2ccc(Cl)cc2)C(=O)c2ccccc2C1=O)c1ccccc1 [MLS000375030]	–	97.1	–
COc1ccc2c(c1)C=C([C@@H]1C[C@H]3CN(c4ccccc4)C(=O)[C@]34CCCN14)CO2 [MLS000734809]	–	95.7	–
CN1C2CCC1/C(=C/c1ccccn1)C(=O)/C2=C\c1ccccn1 [MLS000702810]	–	83	–
